Where two headings read alike, the source gives them in different places.
Legend:
Format in all cases: cell-based, guinea pig (Hartley strain)
5-lipoxygenase = biological target: T1, 5-lipoxygenase (Cavia porcellus, UniProt A0A286X958); assay: 5-Lipoxygenase inhibitory activity (conversion of 14C-arachidonic acid to 5-HETE) in guinea pig peritoneal exudate cells; details: read-out: inhibition ratio (%) of 5-lipoxygenase activity; for inhibition at 0.3 µM: concentration 3 × 10^-7 M; for inhibition at 1 µM: concentration 10^-6 M; for inhibition at 0.1 µM: concentration 10^-7 M; for inhibition at 3 µM: concentration 3 × 10^-6 M; for inhibition at 10 µM: concentration 10^-5 M
T1 construct: endogenous in cells; host or cells: guinea pig (Hartley strain) casein-elicited peritoneal exudate cells, intact cell suspension
T1 sequence (A0A286X958 1-674): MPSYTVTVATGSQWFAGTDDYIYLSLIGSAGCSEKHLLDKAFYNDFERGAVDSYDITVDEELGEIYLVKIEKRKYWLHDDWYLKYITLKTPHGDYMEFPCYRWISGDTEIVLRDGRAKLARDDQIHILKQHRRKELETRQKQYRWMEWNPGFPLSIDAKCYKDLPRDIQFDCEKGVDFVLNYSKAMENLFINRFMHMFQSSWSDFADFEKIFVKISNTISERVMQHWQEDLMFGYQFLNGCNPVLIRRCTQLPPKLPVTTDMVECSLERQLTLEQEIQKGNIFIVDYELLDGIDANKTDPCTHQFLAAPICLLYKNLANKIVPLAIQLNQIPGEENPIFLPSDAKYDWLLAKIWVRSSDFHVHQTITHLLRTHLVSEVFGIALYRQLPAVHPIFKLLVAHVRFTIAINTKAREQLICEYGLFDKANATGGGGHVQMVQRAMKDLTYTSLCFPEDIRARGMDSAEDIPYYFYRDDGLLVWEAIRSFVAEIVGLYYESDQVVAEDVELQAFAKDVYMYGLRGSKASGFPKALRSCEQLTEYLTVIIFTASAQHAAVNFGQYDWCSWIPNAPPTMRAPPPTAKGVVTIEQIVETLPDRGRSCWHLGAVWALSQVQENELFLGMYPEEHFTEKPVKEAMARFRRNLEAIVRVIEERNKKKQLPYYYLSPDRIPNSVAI
Description: 5-Lipoxygenase inhibitory activity of the present compounds was determined by a method according to procedures described in "J. Biol. Chem., Vol. 256, pages 4156-4159, (1981, Ibid. Vol. 258, pages 5754-5758 (1983).
(1) Preparation of Test Cells
A guinea pig (Hartley strain) (500-650 g body weight) was intraperitoneally administered with 2%-casein solution in 3/50 the volume of body weight. 14 Hours after the administration, the animal was sacrificed by bleeding and the peritoneal cavity was washed with Dulbecco's phosphate buffered saline (PBS) containing 3 U/ml of heparin and the exudate cells were harvested. The sample of cells was washed twice with Dulbecco's PBS (-), then the cells were suspended in Dulbecco's PBS (-), containing 1 mM of calcium chloride and 5.5 mM of glucose, so as to make a suspension having the concentration of 2.5×10^7 cells/ml.
To 0.2 ml of the above-mentioned cell suspension was added 10^-5 M of Indomethacine, and incubated at 30° C. for 2 minutes. Each of the appropriate concentrations of test compounds was added to the suspension respectively, further incubated for 2 minutes. Next, 10 μm of Ionophore A23187 (manufactured by Calbiochem-Behring, San Diego, Calif., U. S. A) was added to the suspension, further, 10 μm of ^14 C-arachidonic acid (manufactured by Amersham Japan, Ltd., Tokyo, Japan) was added and initiated the reaction. 3 Minutes after the initiation of the reaction, 0.1 ml of 0.2M-citric acid was added so as to terminate the reaction. 1.2 Milliliters of ethyl acetate was added to the reaction mixture and shaked for 5 minutes. The reaction mixture was centrifuged at 3,000 rpm for 5 minutes so as to separate the organic layer from the aqueous layer. 1 Milliliter of the organic layer (the upper layer) was dehydrated by passing through a mini-column packed with anhydrous sodium sulfate. The dehydrated organic layer was dried under nitrogen gas stream. The residue obtained was dissolved in ethyl acetate, and the total amount of the ethyl acetate solution was spotted onto thin layer chromochromatography (TCL) plate (Art. 11845 manufactured by E. Merck A. G.). The TCL was carried out with a mixed solvent of diethyl ether:petroleum:ether:acetic acid (50:50:1 volume/volume), then the radioactive metabolites on the plate were detected by using "Ultrafilm ^3 H" (a trademark for a X-ray film, manufactured by LKB Co.). Each fractions corresponding to the metabolites was scraped in to a scintillation vial, and 5 ml of "Scintilator ACS-II" (manufactured by Amersham Japan, Ltd.), was added then the radio-activity was determined by means of a liquid scintillation counter.

[1] = system: histamine release from lung fragments; assay: Inhibition of histamine release from sensitized guinea pig lung fragments; details: Cavia porcellus, read-out: Inhibition ratio (%) Histamine; for inhibition at 3 µM: Table 2, dose 3 μM; for inhibition at 30 µM: Table 2, dose 30 μM
Description: (§1) Inhibitory activities on the release of SRS-A and histamine of the present compounds were determined.
(§2) A male guinea pig (Hartley strain) (body weight: about 300 g) was sensitized by a method according to P. Anderson: "Int. Archs. Allergey appln. Immunol., Vol. 64, pages 249-258 (1981). Thus, 30 mg/kg of cyclophosphamide was intraperitoneally administered to the guinea pig, and 2 days after 1 microgram of ovalbumin (manufactured by Sigma Chemical Co., St. Louis, Mo. U. S. A.) together with 10 mg of aluminium hydroxide gel were intraperitoneally administered so as to have the animal sesitized.
(§3) 50 Days after the sesitization, the animal was killed by exsanguination, and the lung was isolated from the animal and was perfused with 20 ml of Tyrode's solution, then immersed in an ice-cooled Tyrode's solution. The parenchyma of the lung was cut by using McIlwain-type tissue chopper to make it into fragments of lung having 2 mm square and the fragments were washed with Tyrode's solution. 400 Milligrams of sectiles of lung were suspended in 3.6 ml of Tyrode's solution, and this suspension was preincubated at 37° C. for 5 minutes, then 4 microliters of dimethyl sulfoxide solution of the test compound, in the case of control 4 microliters of dimethyl sulfoxide alone was added to the suspension. 5 Minutes after, 0.4 ml of 100 micrograms/ml of ovalbumin solution added so as to release SRS-A for 10 minutes. The suspension was ice-cooled and filtered through gauze, the filtrate was centrifuged at 2,000 rpm for 10 minutes and the supernatant was collected. The supernatant was stored in freezed state at -80° C. until bio-assay was conducted.
(§4) Amounts of SRS-A and histamine contained in the supernatant were determined by bio-assay using ileum of guinea pig.
(§5) A piece of the ileum (2-3 cm of length) positioned from 15-25 cm from the opening portion of ileocecum was isolated from a male guinea pig (Hartley strain) (body weight: 400-600 g) which was fasted for 24 hours. The piece of ileum was hanged vertically in a Magnus tube which was filled with 10 ml of Tyrode's solution containing 10^-7 M of atropine sulfate under air stream conditions. The isotonic contraction of the piece of the ileum was measured at 0.5 g of load by using an isotonic transducer "TD-112S" (manufactured by Nihon Koden Co., Ltd.). The measurements were carried out after the reaction to histamine of the piece of ileum was kept constant. Bioassay of histamine was measured by using the value of contraction shown in 30 seconds after the addition of the supernatant. Bioassay of on SRS-A was measured by using the value of contraction shown at 2 minutes after the addition of the supernatant in the presence of 10^-6 M of pyrilamine (manufactured by Sigma Chemical Co.), and compared with the standard curve of crude SRS-A released from the fragments of the lung.

[2] = system: SRS-A release from lung fragments; assay: Inhibition of SRS-A release from sensitized guinea pig lung fragments; details: Cavia porcellus
Description: as §1, §2, §3, §4, §5

[3] = Table 2, dose 3 μM, read-out: Inhibition ratio (%) SRS-A
[4] = Table 2, dose 30 μM, read-out: Inhibition ratio (%) SRS-A
[5] = Table 2B, 3 μM, read-out: Inhibitory activities on SRS-A (%)
[6] = Table 2B, 30 μM, read-out: Inhibitory activities on SRS-A (%)

Compound	inhibition at 0.3 µM (5-lipoxygenase) [%]	inhibition at 1 µM (5-lipoxygenase) [%]	inhibition at 0.1 µM (5-lipoxygenase) [%]	inhibition at 3 µM [1] [%]	inhibition at 30 µM [1] [%]	inhibition at 3 µM [2, 3] [%]	inhibition at 30 µM [2, 4] [%]	inhibition at 3 µM [2, 5] [%]	inhibition at 30 µM [2, 6] [%]	inhibition at 3 µM (5-lipoxygenase) [%]	inhibition at 10 µM (5-lipoxygenase) [%]
COC1=CC(=O)C(OC)=C(CCCCCCC2=C(OC)C(=O)C=C(OC)C2=O)C1=O [Test Compound No. 10, 2,2'-Hexamethylenebis(3,6-dimethoxy-1,4-benzoquinone)]	58	81	17	20.6	22.4	73.4	> 95.2				
COC1=CC(=O)C(OC)=C(CCCCCCCC2=C(OC)C(=O)C=C(OC)C2=O)C1=O [Test Compound No. 11, 2,2'-Heptamethylenebis(3,6-dimethoxy-1,4-benzoquinone)]	64	88	44	-8.4	-3.6	32.5	85.7	32.5	85.7		
COC1=CC(=O)C(OC)=C(CCCCCCCCC2=C(OC)C(=O)C=C(OC)C2=O)C1=O [Test Compound No. 12, 2,2'-Octamethylenebis(3,6-dimethoxy-1,4-benzoquinone)]	72	87	36	2.4	-2.2	26.9	71.7				
COC1=CC(=O)C(OC)=C(CCCCCCCCCCC2=C(OC)C(=O)C=C(OC)C2=O)C1=O [Test Compound No. 14, 2,2'-Decamethylenebis(3,6-dimethoxy-1,4-benzoquinone)]	78	89	34	-12.6	-23.5	4.5	29.2				
COC1=CC(=O)C(OC)=C(CCCCCCCCCCCCC2=C(OC)C(=O)C=C(OC)C2=O)C1=O [Test Compound No. 15, 2,2'-Dodecamethylenebis(3,6-dimethoxy-1,4-benzoquinone)]	37	77	5	-10.4	-16	3.4	3.8				
COC1=CC(=O)C(OC)=C(CCCCCC2=C(OC)C(=O)C(C)=C(OC)C2=O)C1=O [Test Compound No. 18, 2,5-Dimethoxy-3-methyl-6-[5-(2,5-dimethoxy-1,4-benzoquinon-3-yl)pentyl]-1,4-benzoquinone]	33	53	17	14.4	8.3	62.9	91.9				
CCCCC#CCCCCCCCCCC1=C(OC)C(=O)C=C(OC)C1=O [Test Compound No. 32, 2,5-Dimethoxy-3-(10-pentadecynyl)-1,4-benzoquinone]	36	56						12.4	26	80	87
CCCC/C=C\CCCCCC1=C(OC)C(=O)C=C(OC)C1=O [Test Compound No. 33, 2,5-Dimethoxy-3-(Z-6-undecenyl)-1,4-benzoquinone]	51	87						19.6	33.4	91	89
CCCC/C=C\CCCCCCCC1=C(OC)C(=O)C=C(OC)C1=O [Test Compound No. 34, 2,5-Dimethoxy-3-(Z-8-tridecenyl)-1,4-benzoquinone]	26	37						3.2	0.8	73	89
CCCCC#CCCCCCC1=C(OC)C(=O)C=C(OC)C1=O [compound 30]	39	75						23.8	73.4	92	91
CCCCC#CCCCCCCCC1=C(OC)C(=O)C=C(OC)C1=O [compound 31]	43	73						17	37.7	91	93
